{"source": "patent US5106407A", "about": "“Iodones and methods for antimicrobial use” (priority 1989, dated 1992)", "key": {"Escherichia coli": {"test_system": "Escherichia coli", "test": "minimum inhibitory concentration (MIC), agar dilution", "assay_type": "cell-based", "details": "Escherichia coli, ATCC11229; ATCC 11229; nutrient agar pH 6.8; read-out: MIC", "description": "(§1) The minimum inhibitory concentration (MIC) for the compound of Example 19, i.e., (2-nitrophenyl)-iodonium 2,2-dimethyl-4,6-dioxo-1,3-dioxan-5-ylide was determined for 9 bacteria (using nutrient agar) and 5 yeast and fungi (using malt yeast agar). A one percent solution of this test compound (i.e., the compound of Example 19) was prepared in a mixture of acetone-water. Nutrient agar was prepared at pH 6.8 using deionized water according to standard Difco procedures. Malt yeast agar was prepared by adding 3 g Bacto yeast extract and 42 g Bacto Malt agar per liter of deionized water. The agar (nutrient agar when testing with bacteria and malt yeast agar when testing with yeast and fungi) was dispensed in 30 mL aliquots into 25×200 millimeter (mm) test tubes, capped and autoclaved for 15 min at 115° C. The test tubes containing the agar were cooled in a water bath until the temperature of the agar was 48° C. and then an appropriate amount of the one percent solution of the test compound was added (except in the controls where no test compound was added with the acetone-water) to the respective test tubes so that final concentrations of 500, 250, 100, 50, 25, 10, 5, 2.5, 1.0 and 0 parts per million (ppm) of the test compound in the agar were obtained. The agar solutions were each mixed and poured into individual petri plates so that each petri plate contained agar having a known concentration of test compound dispersed therein. After drying for 24 hr, the petri plates were inoculated with bacteria when the petri plates contained nutrient broth agar or with fungi and yeast when the petri plates contained malt yeast agar.\n(§2) The inoculation with bacteria was accomplished using the following procedure. Twenty-four hr cultures of each of the bacteria were prepared by incubating the respective bacteria in tubes containing nutrient broth for 24 hr at 30° C. in a shaker. Dilutions of each of the 24 hr cultures were made so that 9 separate suspensions (one for each of the 9 test bacteria) were made, each containing about 10^8 colony forming units (CFU) per mL of suspension of a particular bacteria. Aliquots of 0.3 mL of each of the above suspensions were used to fill individual wells of a Steer's Replicator. For each microbial suspension, 0.3 mL was used to fill 3 wells (i.e., 3 wells of 0.3 mL each) so that for the 9 different bacteria 27 wells were filled. The Steer's Replicator was then used to inoculate the petri plates.\n(§3) The petri plates were incubated at 30° C. for 48 hr and then read to determine if the test compound (i.e., the compound of Example 19) which was incorporated into the agar prevented growth of the respective bacteria. The minimum inhibitory concentration (MIC) for each bacteria was defined as the lowest concentration of the test compound which prevented growth of that bacteria.\n(§4) In a similar procedure, the MIC (in ppm) of the compound of Example 11 (i.e., (2-nitrophenyl)-iodonium 2,6-dioxocyclohexylide) for various organisms was determined at an acid pH (about 6.8) and at an alkaline pH (about 8.2)."}, "Proteus vulgaris": {"test_system": "Proteus vulgaris", "test": "minimum inhibitory concentration (MIC), agar dilution", "assay_type": "cell-based", "details": "Proteus vulgaris, ATCC881; ATCC 881; nutrient agar pH 6.8; read-out: MIC", "description": "as §1, §2, §3, §4"}, "[1]": {"test_system": "Pseudomonas aeruginosa PRD-10", "test": "minimum inhibitory concentration (MIC), agar dilution", "assay_type": "cell-based", "details": "Pseudomonas aeruginosa, ATCC15442; ATCC 15442; nutrient agar pH 6.8; read-out: MIC", "description": "as §1, §2, §3, §4"}, "Pseudomonas aeruginosa": {"test_system": "Pseudomonas aeruginosa", "test": "minimum inhibitory concentration (MIC), agar dilution", "assay_type": "cell-based", "details": "Pseudomonas aeruginosa, ATCC10145; ATCC 10145; nutrient agar pH 6.8; read-out: MIC", "description": "as §1, §2, §3, §4"}, "Salmonella choleraesuis": {"test_system": "Salmonella choleraesuis", "test": "minimum inhibitory concentration (MIC), agar dilution", "assay_type": "cell-based", "details": "Salmonella enterica, ATCC 10708 / CHOLERAESUIS, nutrient agar pH 6.8, read-out: MIC", "description": "as §1, §2, §3, §4"}, "Staphylococcus aureus": {"test_system": "Staphylococcus aureus", "test": "minimum inhibitory concentration (MIC), agar dilution", "assay_type": "cell-based", "details": "Staphylococcus aureus, ATCC6538; ATCC 6538; nutrient agar pH 6.8; read-out: MIC", "description": "as §1, §2, §3, §4"}, "[2]": {"test_system": "bacteria listed in Table I, Klebsiella oxytoca, Enterobacter gergoviae, Pseudomonas putida #1, and Pseudomonas putida #2", "test": "hand creme preservation test", "description": "Fifty gram aliquots of the latex were placed in sterile bottles and one hundred gram aliquots of the diluted cutting oil were placed in 250-mL Erlenmeyer flasks. An appropriate amount of a fresh 1 percent stock solution of (2-nitrophenyl)-iodonium 2,2-dimethyl-4,6-dioxo-1,3-dioxan-5-ylide in acetone-water was added to achieve the desired final concentrations (see Tables 5 and 6). A small portion of the respective latex or cutting oil preparation was then streaked onto Tryptic Soy Agar (TSA) petri plates using sterile cotton swabs to determine whether the preparations were sterile. If the particular preparation was sterile, it was then inoculated with an appropriate volume (0.1 mL for the latex and 0.2 mL for the cutting oil) of a mixture of equal aliquots of 24 hr cultures of each of the bacterial organisms listed in Table 1 (not the fungi and yeast). The latex samples were incubated at 30° C. and the cutting oils were agitated on a rotary shaker at room temperature. After 24 hr, all samples were again streaked on TSA. All plates were then incubated at 30° C. for 48 hr and then rated 1 to 10 according to the growth rating system described in Table 4.\nThe results from this first set of streaks after inoculation are listed in the columns labeled streak number 1 in Tables 5 and 6. Samples with a rating of 3 or less from streak number 1 were reinoculated as described for the first inoculation above. Samples with a rating of 4 or greater were not reinoculated. After another 24 hr all samples were again restreaked on TSA agar. The results from these second streaks were labeled streak number 2 in Tables 5 and 6. Samples were reinoculated and restreaked in this fashion for a maximum of 10 streaks. Any samples with two streaks in a row with a ten rating were not restreaked again.\nThe ingredients of the hand creme, hand lotion, and protein shampoo are listed in Tables 7, 8 and 9, respectively. In the cosmetic preservative procedures, the stock solution of (2-nitrophenyl)-iodonium 2,2-dimethyl-4,6-dioxo-1,3-dioxan-5-ylide) was made in dimethylformamide (DMF)/water solution. In addition to the bacteria listed in Table I, the following bacteria were also included in the inocula: Klebsiella oxytoca, Enterobacter gergoviae, Pseudomonas putida #1, and Pseudomonas putida #2."}}, "data": [{"smiles": "CC1(C)OC(=O)[C-]([I+]c2ccccc2[N+](=O)[O-])C(=O)O1", "note": "[Example 19, (2-Nitrophenyl)-iodonium 2,2-dimethyl-4,6-dioxo-1,3-dioxan-5-ylide]", "values": [{"measurement": "MIC", "setting": "Escherichia coli", "value": "≤ 1", "unit": "µg/mL"}, {"measurement": "MIC", "setting": "Proteus vulgaris", "value": "≤ 1", "unit": "µg/mL"}, {"measurement": "MIC", "setting": "[1]", "value": 10, "unit": "µg/mL"}, {"measurement": "MIC", "setting": "Pseudomonas aeruginosa", "value": 10, "unit": "µg/mL"}, {"measurement": "MIC", "setting": "Salmonella choleraesuis", "value": "≤ 1", "unit": "µg/mL"}, {"measurement": "MIC", "setting": "Staphylococcus aureus", "value": "≤ 1", "unit": "µg/mL"}, {"measurement": "growth rating", "setting": "[2]; 10 ppm, streak 1", "value": "1 (0)"}, {"measurement": "growth rating", "setting": "[2]; 10 ppm, streak 2", "value": "1 (0)"}, {"measurement": "growth rating", "setting": "[2]; 10 ppm, streak 3", "value": "1 (0)"}, {"measurement": "growth rating", "setting": "[2]; 10 ppm, streak 4", "value": "1 (0)"}, {"measurement": "growth rating", "setting": "[2]; 10 ppm, streak 5", "value": "1 (0)"}, {"measurement": "growth rating", "setting": "[2]; 10 ppm, streak 6", "value": "5 (26-50)"}, {"measurement": "growth rating", "setting": "[2]; 10 ppm, streak 7", "value": "1 (0)"}, {"measurement": "growth rating", "setting": "[2]; 10 ppm, streak 8", "value": "8 (210-300)"}, {"measurement": "growth rating", "setting": "[2]; 10 ppm, streak 9", "value": "1 (0)"}, {"measurement": "growth rating", "setting": "[2]; 10 ppm, streak 10", "value": "7 (101-200)"}, {"measurement": "growth rating", "setting": "[2]; 50 ppm, streak 1", "value": "1 (0)"}, {"measurement": "growth rating", "setting": "[2]; 50 ppm, streak 2", "value": "1 (0)"}, {"measurement": "growth rating", "setting": "[2]; 50 ppm, streak 3", "value": "1 (0)"}, {"measurement": "growth rating", "setting": "[2]; 50 ppm, streak 4", "value": "1 (0)"}, {"measurement": "growth rating", "setting": "[2]; 50 ppm, streak 5", "value": "1 (0)"}, {"measurement": "growth rating", "setting": "[2]; 50 ppm, streak 6", "value": "1 (0)"}, {"measurement": "growth rating", "setting": "[2]; 50 ppm, streak 7", "value": "1 (0)"}, {"measurement": "growth rating", "setting": "[2]; 50 ppm, streak 8", "value": "1 (0)"}, {"measurement": "growth rating", "setting": "[2]; 50 ppm, streak 9", "value": "1 (0)"}, {"measurement": "growth rating", "setting": "[2]; 50 ppm, streak 10", "value": "7 (101-200)"}, {"measurement": "growth rating", "setting": "[2]; 100 ppm, streak 1", "value": "1 (0)"}, {"measurement": "growth rating", "setting": "[2]; 100 ppm, streak 2", "value": "1 (0)"}, {"measurement": "growth rating", "setting": "[2]; 100 ppm, streak 3", "value": "1 (0)"}, {"measurement": "growth rating", "setting": "[2]; 100 ppm, streak 4", "value": "1 (0)"}, {"measurement": "growth rating", "setting": "[2]; 100 ppm, streak 5", "value": "1 (0)"}, {"measurement": "growth rating", "setting": "[2]; 100 ppm, streak 6", "value": "1 (0)"}, {"measurement": "growth rating", "setting": "[2]; 100 ppm, streak 7", "value": "1 (0)"}, {"measurement": "growth rating", "setting": "[2]; 100 ppm, streak 8", "value": "1 (0)"}, {"measurement": "growth rating", "setting": "[2]; 100 ppm, streak 9", "value": "4 (11-25)"}, {"measurement": "growth rating", "setting": "[2]; 100 ppm, streak 10", "value": "7 (101-200)"}]}]}
